In patent US7365053B2, “Selective N-acylation of A82846 glygopeptides analogs” (priority 2000, dated 2008):
In brackets after ≈: the same amount, converted by molar mass.

Experiments:
[1] = system: Enterococcus faecalis 2041; experiment: Broth micro-dilution MIC; type: cell-based; details: BHI medium
Method: (§1) The compounds of the present invention have in vitro activity against Gram-positive pathogenic bacteria. The antibacterial activity of the present compounds is illustrated in Tables III and IV. The minimal inhibitory concentrations (MICs) were determined using a standard broth micro-dilution assay. Table IV presents a comparison of the activity of illustrative compounds against representative vancomycin-resistant and vancomycin-sensitive enterococci (Enterococcus faecium and Enterococcus faecalis), mean geometric MIC (mcg/mL), as determined by the standard broth microdilution assay.
(§2) Assays for antimicrobial activity were performed using microbroth susceptibility testing methods as described by the NCCLS (National Committee for Clinical Laboratories Standards. 1990. Approved standard M7-A2. Methods for dilution antimicrobial susceptibility testing for bacteria that grow aerobically, 2 ed., Villanova Pa.). Brain-heart infusion medium (BHI) was used for testing of enterococci, and NCCLS recommendations for medium were followed for other bacteria.

[2] = system: Enterococcus gallinarum 245; experiment: Broth micro-dilution MIC; type: cell-based; details: BHI medium
Method: as §1, §2

[3] = system: Staphylococcus epidermidis 270; experiment: Broth micro-dilution MIC; type: cell-based
Method: as §1, §2

[4] = system: Staphylococcus aureus SA1199A; experiment: Broth micro-dilution MIC; type: cell-based
Method: as §1, §2

[5] = system: Streptococcus pneumoniae P1; experiment: Broth micro-dilution MIC; type: cell-based
Method: as §1, §2

[6] = system: Enterococcus faecium 180-1; experiment: Broth micro-dilution MIC; type: cell-based; details: BHI medium
Method: as §1, §2

[7] = system: Staphylococcus aureus X778; experiment: Broth micro-dilution MIC; type: cell-based
Method: as §1, §2

[8] = system: Staphylococcus aureus X400; experiment: Broth micro-dilution MIC; type: cell-based
Method: as §1, §2

[9] = system: Staphylococcus aureus SA1199B; experiment: Broth micro-dilution MIC; type: cell-based
Method: as §1, §2

[10] = system: Staphylococcus aureus 489; experiment: Broth micro-dilution MIC; type: cell-based
Method: as §1, §2

[11] = system: Staphylococcus haemolyticus 105; experiment: Broth micro-dilution MIC; type: cell-based
Method: as §1, §2

[12] = system: Staphylococcus aureus 491; experiment: Broth micro-dilution MIC; type: cell-based
Method: as §1, §2

[13] = system: Escherichia coli EC14; experiment: Broth micro-dilution MIC; type: cell-based
Method: as §1, §2

[14] = system: Streptococcus pyogenes C203; experiment: Broth micro-dilution MIC; type: cell-based
Method: as §1, §2

[15] = system: Staphylococcus aureus 446; experiment: Broth micro-dilution MIC; type: cell-based
Method: as §1, §2

[16] = system: Staphylococcus aureus SA1199; experiment: Broth micro-dilution MIC; type: cell-based
Method: as §1, §2

[17] = system: Staphylococcus aureus 447; experiment: Broth micro-dilution MIC; type: cell-based
Method: as §1, §2

[18] = system: Enterococcus faecalis 276; experiment: Broth micro-dilution MIC; type: cell-based; details: BHI medium
Method: as §1, §2

[19] = system: Staphylococcus aureus S13E; experiment: Broth micro-dilution MIC; type: cell-based
Method: as §1, §2

[20] = system: Enterococcus faecium 180; experiment: Broth micro-dilution MIC; type: cell-based; details: BHI medium
Method: as §1, §2

[21] = system: Staphylococcus haemolyticus 415; experiment: Broth micro-dilution MIC; type: cell-based
Method: as §1, §2

[22] = system: vancomycin-sensitive enterococci; experiment: In vitro activity against enterococci, broth microdilution; type: cell-based, Enterococcus faecium and Enterococcus faecalis; details: representative vancomycin-sensitive enterococci (E. faecium and E. faecalis); BHI medium
Method: as §1, §2

[23] = system: vancomycin-resistant enterococci; experiment: as above; type: cell-based, Enterococcus faecium and Enterococcus faecalis; details: representative vancomycin-resistant enterococci (E. faecium and E. faecalis); BHI medium
Method: as §1, §2

SMILES	MIC [1]	MIC [2]	MIC [3]	MIC [4]	MIC [5]	MIC [6]	MIC [7]	MIC [8]	MIC [9]	MIC [10]	MIC [11]	MIC [12]	MIC [13]	MIC [14]	MIC [15]	MIC [16]	MIC [17]	MIC [18]	MIC [19]	MIC [20]	further results
CCCCCCCC(=O)N(C)C(CC(C)C)C(=O)NC1C(=O)NC(CC(N)=O)C(=O)NC2C(=O)NC3C(=O)NC(C(=O)NC(C(=O)O)c4cc(O)cc(O)c4-c4cc3ccc4O)C(OC3CC(C)(N)C(O)C(C)O3)c3ccc(c(Cl)c3)Oc3cc2cc(c3OC2OC(CO)C(O)C(O)C2OC2CC(C)(N)C(O)C(C)O2)Oc2ccc(cc2Cl)C1O (centres unmarked) [Example 10, 1′-N-octanoyl-A82846B]	0.25 µg/mL (≈ 0.145 µM)	2 µg/mL (≈ 1.16 µM)	0.5 µg/mL (≈ 0.291 µM)	0.125 µg/mL (≈ 0.0727 µM)	≦.06 μg/ml	≦.06 μg/ml	0.5 µg/mL (≈ 0.291 µM)	0.5 µg/mL (≈ 0.291 µM)	0.5 µg/mL (≈ 0.291 µM)	0.25 µg/mL (≈ 0.145 µM)	1 µg/mL (≈ 0.582 µM)	0.25 µg/mL (≈ 0.145 µM)	>64 µg/mL	≦.06 μg/ml	1 µg/mL (≈ 0.582 µM)	0.5 µg/mL (≈ 0.291 µM)	1 µg/mL (≈ 0.582 µM)	0.25 µg/mL (≈ 0.145 µM)	0.5 µg/mL (≈ 0.291 µM)	32 µg/mL (≈ 18.6 µM)	MIC [21]: 16 µg/mL (≈ 9.31 µM); Mean geometric MIC, Vancomycin Sensitive Strains [22]: 2.3 µg/mL; Mean geometric MIC, Vancomycin Resistant Strains [23]: 90 µg/mL
CNC(CC(C)C)C(=O)NC1C(=O)NC(CC(N)=O)C(=O)NC2C(=O)NC3C(=O)NC(C(=O)NC(C(=O)O)c4cc(O)cc(O)c4-c4cc3ccc4O)C(OC3CC(C)(N)C(O)C(C)O3)c3ccc(c(Cl)c3)Oc3cc2cc(c3OC2OC(CO)C(O)C(O)C2OC2CC(C)(NC(=O)CCCCCCCc3ccccc3)C(O)C(C)O2)Oc2ccc(cc2Cl)C1O (centres unmarked) [Example 11]	≦.06 μg/ml	4 µg/mL (≈ 2.23 µM)	1 µg/mL (≈ 0.557 µM)	≦.06 μg/ml	≦.06 μg/ml	≦.06 μg/ml	0.125 µg/mL (≈ 0.0696 µM)	0.5 µg/mL (≈ 0.279 µM)	0.25 µg/mL (≈ 0.139 µM)	0.25 µg/mL (≈ 0.139 µM)	≦.06 μg/ml	0.125 µg/mL (≈ 0.0696 µM)	>64 µg/mL	≦.06 μg/ml	1 µg/mL (≈ 0.557 µM)	1 µg/mL (≈ 0.557 µM)	2 µg/mL (≈ 1.11 µM)	0.25 µg/mL (≈ 0.139 µM)	0.25 µg/mL (≈ 0.139 µM)	0.5 µg/mL (≈ 0.279 µM)	MIC [21]: 4 µg/mL (≈ 2.23 µM); Mean geometric MIC, Vancomycin Sensitive Strains [22]: 0.093 µg/mL; Mean geometric MIC, Vancomycin Resistant Strains [23]: 9.5 µg/mL
CNC(CC(C)C)C(=O)NC1C(=O)NC(CC(N)=O)C(=O)NC2C(=O)NC3C(=O)NC(C(=O)NC(C(=O)O)c4cc(O)cc(O)c4-c4cc3ccc4O)C(OC3CC(C)(NC(=O)CCCCCCCc4ccccc4)C(O)C(C)O3)c3ccc(c(Cl)c3)Oc3cc2cc(c3OC2OC(CO)C(O)C(O)C2OC2CC(C)(N)C(O)C(C)O2)Oc2ccc(cc2Cl)C1O (centres unmarked) [Example 12]	≦.06 μg/ml	8 µg/mL (≈ 4.46 µM)	2 µg/mL (≈ 1.11 µM)	≦.06 μg/ml	≦.06 μg/ml	≦.06 μg/ml	≦.06 μg/ml	0.125 µg/mL (≈ 0.0696 µM)	0.125 µg/mL (≈ 0.0696 µM)	≦.06 μg/ml	≦.06 μg/ml	≦.06 μg/ml	>64 µg/mL	≦.06 μg/ml	0.125 µg/mL (≈ 0.0696 µM)	0.25 µg/mL (≈ 0.139 µM)	2 µg/mL (≈ 1.11 µM)	≦.06 μg/ml	≦.06 μg/ml	2 µg/mL (≈ 1.11 µM)	MIC [21]: 8 µg/mL (≈ 4.46 µM); Mean geometric MIC, Vancomycin Sensitive Strains [22]: 0.33 µg/mL; Mean geometric MIC, Vancomycin Resistant Strains [23]: 45 µg/mL
CC(C)CC(C(=O)NC1C(=O)NC(CC(N)=O)C(=O)NC2C(=O)NC3C(=O)NC(C(=O)NC(C(=O)O)c4cc(O)cc(O)c4-c4cc3ccc4O)C(OC3CC(C)(N)C(O)C(C)O3)c3ccc(c(Cl)c3)Oc3cc2cc(c3OC2OC(CO)C(O)C(O)C2OC2CC(C)(N)C(O)C(C)O2)Oc2ccc(cc2Cl)C1O)N(C)C(=O)CCCCCCCc1ccccc1 (centres unmarked) [Example 13]	0.25 µg/mL (≈ 0.139 µM)	2 µg/mL (≈ 1.11 µM)	0.25 µg/mL (≈ 0.139 µM)	≦.06 μg/ml	≦.06 μg/ml	≦.06 μg/ml	0.25 µg/mL (≈ 0.139 µM)	0.25 µg/mL (≈ 0.139 µM)	0.25 µg/mL (≈ 0.139 µM)	0.125 µg/mL (≈ 0.0696 µM)	≦.06 μg/ml	0.125 µg/mL (≈ 0.0696 µM)	>64 µg/mL	≦.06 μg/ml	0.5 µg/mL (≈ 0.279 µM)	0.5 µg/mL (≈ 0.279 µM)	0.5 µg/mL (≈ 0.279 µM)	0.25 µg/mL (≈ 0.139 µM)	0.5 µg/mL (≈ 0.279 µM)	8 µg/mL (≈ 4.46 µM)	MIC [21]: 8 µg/mL (≈ 4.46 µM); Mean geometric MIC, Vancomycin Sensitive Strains [22]: 1.5 µg/mL; Mean geometric MIC, Vancomycin Resistant Strains [23]: >51 µg/mL
